Patent publication US11447525B2 (NIIGATA UNIVERSITY, priority 2018, dated 2022)
Residues, ends and D or L forms follow the SMILES beside them. *: point of attachment. 5FAM = O=C1OC2(c3ccc(O)cc3Oc3cc(O)ccc32)c2ccc(C(=O)*)cc21

How the values were obtained:
[1] = tested on: pancreatic cancer cells (BxPC3, PK-8, MIA-Paca2, AsPC1, PL45, Panc-1); assay: Accumulation of various peptides in pancreatic cancer cells (Test Example 5); assay type: cell-based, human; settings: 2 μM, 37° C., 2 hours
Experimental: Test were conducted to confirm the accumulation of various peptides in each of the cells shown below in Table 11. Further, the peptides shown below in Table 12 were used.
Each peptide was added to each of the cells shown in Table 11 in an amount sufficient to achieve a final concentration in the medium of 2 μM, and following cultivation of the cells at 37° C. for 2 hours, the sample was washed 3 times with a medium containing no peptide to remove any peptide within the medium. Subsequently, the incorporation of each of the peptides into each of the cells was evaluated visually using an inverted fluorescence microscope. Prior to the microscopic examination, the culture supernatant to which the peptide had been added was removed, and following washing three times with 1×PBS (−), a trypsin treatment was conducted to remove the adherent cells, and the resultant was immediately transferred into a new 96-well plate and once again suspended in fresh culture solution before the microscopic examination was performed. In FIG. 17, “L” indicates the cells to which FAM-PCPP11 was added, “d” indicates the cells to which FAM-d was added, “LL” indicates the cells to which FAM-LL was added, “LL2” indicates the cells to which FAM-LL2 was added, and “dd” indicates the cells to which FAM-dd was added.

[2] = tested on: scirrhous pancreatic cancer model mouse (BxPC3 cells; BxPC3 cells and hMSC); assay: Selective absorption of FAM-LL in tissues of scirrhous pancreatic cancer model mouse (Test Example 6); assay type: in vivo, NOD/SCID mouse; settings: 200 μg into the caudal vein, 30 minutes after administration
Experimental: FAM-LL was administered to a pancreatic cancer model mouse having scirrhous carcinoma, and the selective absorption of the FAM-LL in various tissues of the mouse was confirmed. A scirrhous pancreatic cancer model mouse having scirrhous carcinoma that forms abundant tumor-stroma interactions was produced in accordance with the method disclosed in Reference Document 1 (Saito K et al., “Stromal mesenchymal stem cells facilitate pancreatic cancer progression by regulating specific secretory molecules through mutual cellular interaction.”, Journal of Cancer, Vol. 9, No. 16, pp. 2916-2929, 2018.). Specifically, a 6-week old NOD/SCID mouse (CLEA Japan Inc., Japan) was raised under pathogen-free conditions. BxPC3 cells (2×10^5 cells) and a cell mixture containing BxPC3 cells (1×10^5 cells) and human mesenchymal stem cells (hMSC) (1×10^5 cells) were each injected subcutaneously into the mouse.
FAM-LL (200 μg) was injected into the caudal vein of the obtained scirrhous pancreatic cancer model mouse. Subsequently, the pharmacokinetics of the peptide 30 minutes after administration were analyzed by tissue analysis of the freshly dissected specimen of the peptide-administered mouse. FIG. 18A is a series of bright-field images (left and center) and a fluorescent image (right) of the tumors in the scirrhous pancreatic cancer model mouse. […]

[3] = tested on: pancreatic cancer cells (BxPC3, PK-8, MIA-Paca2); assay: Accumulation of FAM-labeled peptides in cells, inverted fluorescence microscope (Test Example 2); assay type: cell-based, human; settings: 2 μM, 37° C., 2 hours
Experimental: (§1) Tests were conducted to confirm the accumulation of each peptide in each of the cells shown below in Table 8. Further, among the peptides shown below in Table 9, the FAM-PCPP11 used in Test Example 1, the LL peptide in which the N-terminus had been FAM-labeled (FAM-LL), and the Ld peptide in which the N-terminus had been FAM-labeled (FAM-Ld) were used.
(§2) Each of FAM-PCPP11, FAM-LL and FAM-Ld was added to each of the cells shown in Table 8 in an amount sufficient to achieve a final concentration in the medium of 2 μM, and following cultivation of the cells at 37° C. for 2 hours, the sample was washed 3 times with a medium containing no peptide to remove any peptide within the medium. Subsequently, the incorporation of each of the peptides into each of the cells was evaluated visually using an inverted fluorescence microscope. Prior to the microscopic examination, the culture supernatant to which the peptide had been added was removed, and following washing three times with 1×PBS (−), a trypsin treatment was conducted to remove the adherent cells, and the resultant was immediately transferred into a new 96-well plate and once again suspended in fresh culture solution before the microscopic examination was performed. In FIG. 8A, “L” indicates the cells to which FAM-PCPP11 was added, “LL” indicates the cells to which FAM-LL was added, and “Ld” indicates the cells to which FAM-Ld was added. Further, the fluorescent images in the BxPC3 cells indicate a representative example of pancreatic cancer cells.
(§3) Furthermore, FIG. 8B is a graph quantifying the fluorescence detected in each of the above cells in FIG. 8A, with the fluorescence intensity detected in each cell shown relative to a value of 1.0 for the fluorescence detected in the H2110 cells, which is a cell line derived from an adenocarcinoma in a human non-small-cell lung cancer system, to which each of the FAM-PCPP11 and FAM-LL peptides had been added.
Further, each of FAM-PCPP11, FAM-LL and FAM-NmLL was added to each of the cells shown in Table 8 in an amount sufficient to achieve a final concentration in the medium of 2 μM, and following cultivation of the cells at 37° C. for 2 hours, the sample was washed 3 times with a medium containing no peptide to remove any peptide within the medium. Subsequently, the incorporation of each of the peptides into each of the cells was evaluated visually using an inverted fluorescence microscope. […]

[4] = tested on: stomach cancer cells (SCH); assay: as above; assay type: cell-based, human; settings: 2 μM, 37° C., 2 hours
Experimental: as §1, §2, §3

[5] = tested on: human pancreatic cancer growth and progression mouse model (subcutaneous and intraperitoneal human pancreatic cancer cell-transplanted); assay: Selective absorption into tissues of human pancreatic cancer growth and progression mouse model, fluorescence signal (Test Examples 3, 4, Reference Example 2); assay type: in vivo, Balb/c nu/nu mouse; settings: 200 μg intravenously, 30 minutes after injection
Experimental: Subsequently, 200 μg of each of the fluorescent labeled peptides prepared above in “1.” was injected intravenously into a human pancreatic cancer growth and progression mouse model (Balb/c nu/nu mouse, subcutaneous and intraperitoneal human pancreatic cancer cell-transplanted model). The pharmacokinetics of the peptide 30 minutes after the intravenous injection were then analyzed by tissue analysis of the freshly dissected specimen of the administered mouse, with the absorption quantified by detection of the fluorescence signal. […] In FIG. 9A, “sc tumor” is an abbreviation for “subcutaneous tumor”. In FIG. 9B, “abd tumor” is an abbreviation for “abdominal tumor”, indicating a tumor formed intraperitoneally. Further, “br” indicates the brain, “hr” indicates the heart, “kd” indicates the kidney, and “liv” indicates the liver. Furthermore, “liv. meta” is an abbreviation for “liver metastatic tumor”, and describes a tumor that has metastasized to the liver. Moreover, “panc” indicates the pancreas, and “sp” indicates the spleen. These same abbreviations are also used in subsequent figures. Furthermore, the term “untreated” in FIG. 9A indicates tissues resected from a mouse that was not administered with any fluorescent labeled peptide.
Specifically, first, either 27 μg or 200 μg of fluorescein was injected intravenously into a human pancreatic cancer growth and progression mouse model (Balb/c nu/nu mouse, subcutaneous and intraperitoneal human pancreatic cancer cell-transplanted model). The pharmacokinetics of the FLC 30 minutes after the intravenous injection were then analyzed by tissue analysis of the freshly dissected specimen of the administered mouse, with the absorption quantified by detection of the fluorescence signal.

[6] = FIG. 8B, relative to H2110 cells = 1.0

Row | SMILES | fluorescence compared with the other peptides [1] | absorption into the cancer cell nests inside the tumor tissue [2] | absorption into the tumor tissue [2] | fluorescence compared with the sample containing FAM-PCPP11 [3] | increase of quantitative value for the fluorescence compared with FAM-PCPP11 [3, 6] | fluorescence compared with the sample containing FAM-PCPP11 [4] | increase of quantitative value for the fluorescence compared with FAM-PCPP11 [4, 6] | inhibitory performance on nonspecific absorption into untargeted normal organs [5] | nonspecific absorption compared with conventional PCPP11 ([5]; FIG. 10A to 10D) | absorption into pancreatic malignant tumors compared with the conventional PCPP11 ([5]; FIG. 11) [fold] | fluorescence detected [1]
1 | C[C@@H](O)[C@H](NC(=O)[C@@H](NC(=O)[C@@H]1CCCN1C(=O)[C@H](CCCNC(=N)N)NC(=O)[C@H](CCCNC(=N)N)NC(=O)CNC(=O)[C@@H]1CCCN1C(=O)CNC(=O)[C@@H]1CCCN1C(=O)[C@H](CCCCN)NC(=O)[C@H](Cc1c[nH]cn1)NC(=O)[C@H](Cc1c[nH]c2ccccc12)NC(=O)[C@@H](NC(=O)[C@@H](NC(=O)[C@@H]1CCCN1C(=O)[C@H](CCCNC(=N)N)NC(=O)[C@H](CCCNC(=N)N)NC(=O)c1ccc2c(c1)C(=O)OC21c2ccc(O)cc2Oc2cc(O)ccc21)[C@@H](C)O)[C@@H](C)O)[C@@H](C)O)C(=O)N[C@@H](Cc1c[nH]c2ccccc12)C(=O)N[C@@H](Cc1c[nH]cn1)C(=O)N[C@@H](CCCCN)C(=O)N1CCC[C@H]1C(=O)O [FAM-LL2] (5FAM-RRPTTWHKPGPGRRPTTWHKP-OH; C-terminus assumed) | stronger fluorescence | – | – | – | – | – | – | – | – | – | –
2 | C[C@@H](O)[C@H](NC(=O)[C@@H](NC(=O)[C@@H]1CCCN1C(=O)[C@H](CCCNC(=N)N)NC(=O)[C@H](CCCNC(=N)N)NC(=O)CNC(=O)[C@@H]1CCCN1C(=O)[C@H](CCCCN)NC(=O)[C@H](Cc1c[nH]cn1)NC(=O)[C@H](Cc1c[nH]c2ccccc12)NC(=O)[C@@H](NC(=O)[C@@H](NC(=O)[C@@H]1CCCN1C(=O)[C@H](CCCNC(=N)N)NC(=O)[C@H](CCCNC(=N)N)NC(=O)c1ccc2c(c1)C(=O)OC21c2ccc(O)cc2Oc2cc(O)ccc21)[C@@H](C)O)[C@@H](C)O)[C@@H](C)O)C(=O)N[C@@H](Cc1c[nH]c2ccccc12)C(=O)N[C@@H](Cc1c[nH]cn1)C(=O)N[C@@H](CCCCN)C(=O)N1CCC[C@H]1C(=O)O [FAM-LL] (5FAM-RRPTTWHKPGRRPTTWHKP-OH; C-terminus assumed) | stronger fluorescence | strong absorption | strong absorption | stronger fluorescence | at least 2.9 fold | stronger fluorescence | at least 2.9 fold | satisfactorily maintained | inhibited even more effectively | 3 | particularly strong fluorescence
